Measurements published in patent US20220265629A1, “TREATMENT OF SYSTOLIC DYSFUNCTION AND HEART FAILURE WITH REDUCED EJECTION FRACTION WITH THE COMPOUND (R)-4-(1-((3-(DIFLUOROMETHYL)-1-METHYL-1H-PYRAZOL-4-YL)SULFONYL)-1-FLUOROETHYL)-N-(ISOXAZOL-3-YL)PIPERIDINE-1-CARBOXAMIDE” (MyoKardia, Inc., priority 2019, published 2022).
Like-named read-outs stand apart in the source and are kept apart here.

Test: Single ascending oral dose study in healthy volunteers: plasma pharmacokinetics
Assay type: in vivo, human
Conditions: human, plasma, oral; for concentration at 6 h: 6 Hours Postdose; for concentration at 12 h: 12 Hours Postdose; for concentration at 24 h: 24 Hours Postdose; for concentration at 48 h: 48 Hours Postdose; for concentration at 72 h: 72 Hours Postdose
Description: This example describes the first-in-human study of Compound I. Based on its mechanism of action, Compound I may offer a targeted therapy for patients with DCM caused by genetic or nongenetic mechanisms. The study was a randomized, double-blind, placebo-controlled, sequential group, single-ascending (oral) close study in healthy subjects aged 18-55 years. Eight dosing cohorts, each comprising eight healthy subjects, were enrolled. Within each cohort, subjects were randomized 6:2 to Compound I:placebo.
Subjects were resident at the clinical site for up to 5 days and 4 nights, from Day −1 (the day before dosing) to Day 4, and received a single dose of Compound I or placebo on Day 1. ECG telemetry was initiated 1 hour preclose and continued through 48 hours postclose (Day 3). Any subject with a preclose resting HR≥80 beats per minute was considered ineligible and not treated. […] Subjects returned for a safety follow-up visit 7 days (±1 day) after dosing.
All randomized study subjects received either Compound I or matching placebo as a single oral dose after a fasting period of at least 6 hours. Compound I drug substance is a crystalline, free-base, synthetic molecule with a molecular weight of 435.4 g/mol.
Compound I was provided as a powder for oral suspension. Placebo was provided as calcium carbonate powder. Both treatments were closed orally as a suspension. The suspension was made using Ora-Plus® suspending vehicle (Perrigo) and a cherry syrup flavoring vehicle (Humco), mixed 50% to 50%. The suspension was followed by approximately 100 mL water. The suspension was made up within 14 days from the time in which it was closed which was consistent with the stability data on the suspension. The suspension was made up so the volume administered to the subjects who received Compound I was the same at 20 mL.
Each subject received a close according to the cohort in which they were enrolled. Cohorts were enrolled sequentially, with each cohort receiving an escalated dose of Compound I. The closes administered were 3 mg, 10 mg, 25 mg, 50 mg, 100 mg, 175 mg, 350 mg, and 525 mg, respectively.
The concentrations of Compound I in human plasma and urine were quantitated by high performance liquid chromatography with tandem mass spectrometric detection (LC MS/MS) (Biological sample analysis study report Alturas AD17-726). Plasma samples were extracted by protein precipitation with acetonitrile containing internal standard MYK-5654. The calibration curves were linear over concentration range of 0.500 to 1000 ng/mL with a lower limit of quantification (LLOQ) of 0.500 ng/mL.
The PK Population included all subjects who received Compound I. Blood samples were collected for PK assessments. The actual timing of the samples may have been modified and/or up to an additional 2 samples may have been requested by the SRC after review of the data from previous cohorts. It was important that PK sampling occurred as closely as possible to the scheduled time (±10%). Both blood and urine samples were used for PK assessments.
In addition, for subjects who received placebo, a single plasma sample near the predicted tmax of Compound I was evaluated to confirm the lack of circulating Compound I. Plasma concentration data for Compound I was summarized using descriptive statistics, including mean, standard deviation (SD), median, minimum, and maximum values, and percent coefficient of variation. Other PK parameters included (but were not limited to) Cmax, tmax, AUC, t1/2, and MRT. Additionally, the apparent terminal-phase terminal half-life was calculated. The close proportionality of AUC and Cmax was explored.

[1] = 100 mg, 100 mg, read-out: Plasma concentration, Geometric Mean
[2] = 100 mg, 100 mg, read-out: Plasma concentration, Mean
[3] = 100 mg, 100 mg, read-out: Plasma concentration, Median
[4] = 175 mg, 175 mg, read-out: Plasma concentration, Geometric Mean
[5] = 175 mg, 175 mg, read-out: Plasma concentration, Mean
[6] = 175 mg, 175 mg, read-out: Plasma concentration, Median

## Cn1cc(S(=O)(=O)[C@@](C)(F)C2CCN(C(=O)Nc3ccon3)CC2)c(C(F)F)n1 [Compound I, (R)-4-(1-((3-(difluoromethyl)-1-methyl-1H-pyrazol-4-yl)sulfonyl)-1-fluoroethyl)-N-(isoxazol-3-yl)piperidine-1-carboxamide]
50 mg, read-out: Vz/F, Mean
  Vd/F: 87.9 L
50 mg, read-out: Vz/F, Median
  Vd/F: 90.6 L
[1]
  concentration at 6 h: 934 ng/mL
  concentration at 12 h: 661 ng/mL
  concentration at 24 h: 374 ng/mL
  concentration at 48 h: 71 ng/mL
[2]
  concentration at 6 h: 947 ng/mL
  concentration at 12 h: 674 ng/mL
  concentration at 24 h: 384 ng/mL
  concentration at 48 h: 91.1 ng/mL
  concentration at 72 h: 23.2 ng/mL
[3]
  concentration at 6 h: 935 ng/mL
  concentration at 12 h: 637 ng/mL
  concentration at 24 h: 372 ng/mL
  concentration at 48 h: 104 ng/mL
  concentration at 72 h: 24.2 ng/mL
100 mg, read-out: AUC0-24, Geometric Mean
  AUC(0-t): 15200 ng·h/mL
100 mg, read-out: AUC0-24, Mean
  AUC(0-t): 15400 ng·h/mL
100 mg, read-out: AUC0-24, Median
  AUC(0-t): 14900 ng·h/mL
100 mg, read-out: AUC0-48, Geometric Mean
  AUC(0-t): 21100 ng·h/mL
100 mg, read-out: AUC0-48, Mean
  AUC(0-t): 21400 ng·h/mL
100 mg, read-out: AUC0-48, Median
  AUC(0-t): 21600 ng·h/mL
100 mg, read-out: AUC0-last, Geometric Mean
  AUC(0-t): 21700 ng·h/mL
100 mg, read-out: AUC0-last, Mean
  AUC(0-t): 22700 ng·h/mL
100 mg, read-out: AUC0-last, Median
  AUC(0-t): 22400 ng·h/mL
100 mg, read-out: AUC0-∞, Geometric Mean
  AUC(0-inf): 21300 ng·h/mL
100 mg, read-out: AUC0-∞, Mean
  AUC(0-inf): 21700 ng·h/mL
100 mg, read-out: AUC0-∞, Median
  AUC(0-inf): 18700 ng·h/mL
100 mg, read-out: Cmax, Geometric Mean
  Cmax: 1000 ng/mL
100 mg, read-out: Cmax, Mean
  Cmax: 1020 ng/mL
100 mg, read-out: Cmax, Median
  Cmax: 983 ng/mL
100 mg, read-out: Half-Life Lambda Z, Geometric Mean (converted)
  half-life: 665 min
100 mg, read-out: Half-Life Lambda Z, Mean (converted)
  half-life: 700 min
100 mg, read-out: Half-Life Lambda Z, Median (converted)
  half-life: 752 min
100 mg, read-out: Mean Residence Time, Geometric Mean
  MRT: 19.1 h
100 mg, read-out: Mean Residence Time, Mean
  MRT: 19.5 h
100 mg, read-out: Mean Residence Time, Median
  MRT: 20.4 h
100 mg, read-out: Tmax, Geometric Mean
  Tmax: 4.42 h
100 mg, read-out: Tmax, Mean
  Tmax: 4.5 h
100 mg, read-out: Tmax, Median
  Tmax: 5 h
100 mg, read-out: Vz/F, Geometric Mean
  Vd/F: 74.9 L
100 mg, read-out: Vz/F, Mean
  Vd/F: 77.9 L
100 mg, read-out: Vz/F, Median
  Vd/F: 82.1 L
[4]
  concentration at 6 h: 1260 ng/mL
  concentration at 12 h: 1040 ng/mL
  concentration at 24 h: 650 ng/mL
  concentration at 48 h: 203 ng/mL
  concentration at 72 h: 64 ng/mL
[5]
  concentration at 6 h: 1270 ng/mL
  concentration at 12 h: 1050 ng/mL
  concentration at 24 h: 664 ng/mL
  concentration at 48 h: 212 ng/mL
  concentration at 72 h: 71.3 ng/mL
[6]
  concentration at 6 h: 1250 ng/mL
  concentration at 12 h: 1040 ng/mL
  concentration at 24 h: 690 ng/mL
  concentration at 48 h: 224 ng/mL
  concentration at 72 h: 73.2 ng/mL
175 mg, read-out: AUC0-24, Geometric Mean
  AUC(0-t): 22000 ng·h/mL
175 mg, read-out: AUC0-24, Mean
  AUC(0-t): 22300 ng·h/mL
175 mg, read-out: AUC0-24, Median
  AUC(0-t): 21700 ng·h/mL
175 mg, read-out: AUC0-48, Geometric Mean
  AUC(0-t): 32300 ng·h/mL
175 mg, read-out: AUC0-48, Mean
  AUC(0-t): 32800 ng·h/mL
175 mg, read-out: AUC0-48, Median
  AUC(0-t): 32700 ng·h/mL
175 mg, read-out: AUC0-last, Geometric Mean
  AUC(0-t): 38200 ng·h/mL
175 mg, read-out: AUC0-last, Mean
  AUC(0-t): 39000 ng·h/mL
175 mg, read-out: AUC0-last, Median
  AUC(0-t): 39600 ng·h/mL
175 mg, read-out: AUC0-∞, Geometric Mean
  AUC(0-inf): 38300 ng·h/mL
175 mg, read-out: AUC0-∞, Mean
  AUC(0-inf): 39100 ng·h/mL
175 mg, read-out: AUC0-∞, Median
  AUC(0-inf): 39700 ng·h/mL
175 mg, read-out: Cmax, Geometric Mean
  Cmax: 1300 ng/mL
175 mg, read-out: Cmax, Mean
  Cmax: 1320 ng/mL
175 mg, read-out: Cmax, Median
  Cmax: 1300 ng/mL
175 mg, read-out: Half-Life Lambda Z, Geometric Mean (converted)
  half-life: 945 min
175 mg, read-out: Half-Life Lambda Z, Mean (converted)
  half-life: 950 min
175 mg, read-out: Half-Life Lambda Z, Median (converted)
  half-life: 982 min
175 mg, read-out: Mean Residence Time, Geometric Mean
  MRT: 24.4 h
175 mg, read-out: Mean Residence Time, Mean
  MRT: 24.6 h
175 mg, read-out: Mean Residence Time, Median
  MRT: 24.4 h
175 mg, read-out: Tmax, Geometric Mean
  Tmax: 5.07 h
175 mg, read-out: Tmax, Mean
  Tmax: 5.11 h
175 mg, read-out: Tmax, Median
  Tmax: 5 h
175 mg, read-out: Vz/F, Geometric Mean
  Vd/F: 104 L
175 mg, read-out: Vz/F, Mean
  Vd/F: 106 L
175 mg, read-out: Vz/F, Median
  Vd/F: 101 L
350 mg + 525 mg, read-out: AUC0-24, Geometric Mean
  AUC(0-t): 40900 ng·h/mL
350 mg + 525 mg, read-out: AUC0-24, Mean
  AUC(0-t): 42100 ng·h/mL
350 mg + 525 mg, read-out: AUC0-24, Median
  AUC(0-t): 38500 ng·h/mL
350 mg + 525 mg, read-out: AUC0-48, Geometric Mean
  AUC(0-t): 60500 ng·h/mL
350 mg + 525 mg, read-out: AUC0-48, Mean
  AUC(0-t): 62400 ng·h/mL
350 mg + 525 mg, read-out: AUC0-48, Median
  AUC(0-t): 57400 ng·h/mL
350 mg + 525 mg, read-out: AUC0-last, Geometric Mean
  AUC(0-t): 70600 ng·h/mL
350 mg + 525 mg, read-out: AUC0-last, Mean
  AUC(0-t): 74000 ng·h/mL
350 mg + 525 mg, read-out: AUC0-last, Median
  AUC(0-t): 68600 ng·h/mL
350 mg + 525 mg, read-out: AUC0-∞, Geometric Mean
  AUC(0-inf): 71000 ng·h/mL
350 mg + 525 mg, read-out: AUC0-∞, Mean
  AUC(0-inf): 74400 ng·h/mL
350 mg + 525 mg, read-out: AUC0-∞, Median
  AUC(0-inf): 68800 ng·h/mL
350 mg + 525 mg, read-out: Cmax, Geometric Mean
  Cmax: 2530 ng/mL
350 mg + 525 mg, read-out: Cmax, Mean
  Cmax: 2580 ng/mL
350 mg + 525 mg, read-out: Cmax, Median
  Cmax: 2500 ng/mL
350 mg + 525 mg, read-out: Half-Life Lambda Z, Geometric Mean (converted)
  half-life: 871 min
350 mg + 525 mg, read-out: Half-Life Lambda Z, Mean (converted)
  half-life: ~900 min
350 mg + 525 mg, read-out: Half-Life Lambda Z, Median (converted)
  half-life: 872 min
350 mg + 525 mg, read-out: Mean Residence Time, Geometric Mean
  MRT: 23.9 h
350 mg + 525 mg, read-out: Mean Residence Time, Mean
  MRT: 24.3 h
350 mg + 525 mg, read-out: Mean Residence Time, Median
  MRT: 23.5 h
350 mg + 525 mg, read-out: Tmax, Geometric Mean
  Tmax: 4.89 h
350 mg + 525 mg, read-out: Tmax, Mean
  Tmax: 5 h
350 mg + 525 mg, read-out: Vz/F, Geometric Mean
  Vd/F: 126 L
350 mg + 525 mg, read-out: Vz/F, Mean
  Vd/F: 132 L
350 mg + 525 mg, read-out: Vz/F, Median
  Vd/F: 116 L
350 mg, 350 mg, read-out: Plasma concentration, Geometric Mean
  concentration at 6 h: 2620 ng/mL
